Source: ChEMBL document CHEMBL6134905, “Double Swords in One: Novel Selective PI3K/110β PROTAC Degraders for the Treatment of Multidrug-Resistant Cancer by Activating ERS and Inhibiting P-gp” (J Med Chem, 2025)
Calls of active or inactive are those of the source. No cut-off for these calls is given here.

Columns and labels:
[1] = target: T1, von Hippel-Lindau disease tumor suppressor/Phosphatidylinositol 4,5-bisphosphate 3-kinase catalytic subunit beta isoform (Homo sapiens, UniProt P42338+P40337); test: PROTAC activity at PI3K-p110beta/VHL in human MCF7/ADM cells assessed as reduction in PI3K-p110beta level at 25 uM incubated for 24 hrs by Western blot analysis relative to control; format: cell-based; parameters: scale not given: the % may be the effect or the level left
Target sequence in this assay (P40337 whole entry, looked up, canonical isoform): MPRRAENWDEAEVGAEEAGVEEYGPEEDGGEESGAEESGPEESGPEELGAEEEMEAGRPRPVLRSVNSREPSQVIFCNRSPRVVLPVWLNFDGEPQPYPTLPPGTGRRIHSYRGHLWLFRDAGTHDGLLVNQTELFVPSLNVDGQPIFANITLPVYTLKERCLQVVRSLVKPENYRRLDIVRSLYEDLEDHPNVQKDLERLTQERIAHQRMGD
Target sequence in this assay (P42338 whole entry, looked up, canonical isoform): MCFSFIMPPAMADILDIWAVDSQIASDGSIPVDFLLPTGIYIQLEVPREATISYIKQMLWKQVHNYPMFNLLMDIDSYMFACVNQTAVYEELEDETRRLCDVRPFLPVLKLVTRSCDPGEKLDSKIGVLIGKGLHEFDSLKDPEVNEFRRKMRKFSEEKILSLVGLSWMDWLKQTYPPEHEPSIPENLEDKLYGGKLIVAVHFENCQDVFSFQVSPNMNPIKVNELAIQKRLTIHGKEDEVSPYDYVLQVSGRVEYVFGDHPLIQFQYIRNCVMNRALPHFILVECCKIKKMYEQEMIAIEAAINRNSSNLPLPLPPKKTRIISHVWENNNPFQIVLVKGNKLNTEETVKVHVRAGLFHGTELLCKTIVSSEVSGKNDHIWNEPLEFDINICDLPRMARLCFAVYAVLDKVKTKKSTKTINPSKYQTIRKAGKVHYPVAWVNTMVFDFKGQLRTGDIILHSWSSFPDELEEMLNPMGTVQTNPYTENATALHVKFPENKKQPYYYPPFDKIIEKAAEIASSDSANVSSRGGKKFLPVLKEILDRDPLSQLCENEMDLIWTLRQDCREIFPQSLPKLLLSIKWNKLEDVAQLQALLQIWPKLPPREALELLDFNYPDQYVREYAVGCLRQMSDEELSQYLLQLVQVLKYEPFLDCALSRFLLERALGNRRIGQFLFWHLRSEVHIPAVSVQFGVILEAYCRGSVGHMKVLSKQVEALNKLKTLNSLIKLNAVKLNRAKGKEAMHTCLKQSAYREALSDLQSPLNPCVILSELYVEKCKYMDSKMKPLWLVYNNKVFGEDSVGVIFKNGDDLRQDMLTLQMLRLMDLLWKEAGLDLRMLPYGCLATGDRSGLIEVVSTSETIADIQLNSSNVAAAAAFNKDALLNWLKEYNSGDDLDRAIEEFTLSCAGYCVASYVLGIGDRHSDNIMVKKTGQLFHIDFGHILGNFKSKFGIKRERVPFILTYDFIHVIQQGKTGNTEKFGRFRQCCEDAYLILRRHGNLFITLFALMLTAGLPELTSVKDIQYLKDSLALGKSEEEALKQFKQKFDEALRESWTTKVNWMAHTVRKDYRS

[2] = Toxicity in BALB/c mouse xenografted with human MCF7/ADM cells assessed as kidney damage at 50 mg/kg, ip by H and E staining based analysis; format: organism-based; conditions: in vivo
[3] = target: T1, von Hippel-Lindau disease tumor suppressor/Phosphatidylinositol 4,5-bisphosphate 3-kinase catalytic subunit beta isoform; test: PROTAC activity at PI3K-p110beta/VHL in human MCF7/ADM cells assessed as reduction in PI3K-p110beta level incubated for 24 hrs by Western blot analysis; format: cell-based; conditions: dose 0.04-50 µM
Target sequence in this assay (P40337 whole entry, looked up, canonical isoform): as the sequence (P40337 whole entry, looked up, canonical isoform) above
Target sequence in this assay (P42338 whole entry, looked up, canonical isoform): as the sequence (P42338 whole entry, looked up, canonical isoform) above

MCF7/ADM [4] = test: Antitumor activity against human MCF7/ADM cells xenografted in BALB/c mouse assessed as downregulation of p110alpha level in tumor at 50 mg/kg, ip; format: functional, organism-based
MCF7/ADM [5] = test: Antitumor activity against human MCF7/ADM cells xenografted in BALB/c mouse assessed as reduction in AKT expression in tumor at 50 mg/kg, ip by Western blot analysis; format: functional, organism-based
A549/CDDP [6] = test: Upregulation of PTEN expression in human A549/DDP cells at 25 uM incubated for 24 hrs by Western blot analysis; format: functional, cell-based
[7] = target: T1, von Hippel-Lindau disease tumor suppressor/Phosphatidylinositol 4,5-bisphosphate 3-kinase catalytic subunit beta isoform; test: PROTAC activity at PI3K-p110beta/VHL in human A549/DDP cells assessed as reduction in PI3K-p110beta level at 25 uM measured for 24 hrs by Western blot analysis; format: cell-based
Target sequence in this assay (P40337 whole entry, looked up, canonical isoform): as the sequence (P40337 whole entry, looked up, canonical isoform) above
Target sequence in this assay (P42338 whole entry, looked up, canonical isoform): as the sequence (P42338 whole entry, looked up, canonical isoform) above

[8] = Toxicity in BALB/c mouse xenografted with human MCF7/ADM cells assessed as body weight loss at 50 mg/kg, ip; format: organism-based; conditions: in vivo
[9] = target: T2, ATP-dependent translocase ABCB1 (Homo sapiens, UniProt P08183); test: Inhibition of P-gp in human MCF7/ADM cells assessed as increase in intracellular adriamycin accumulation at 6.25 to 25 uM incubated for 24 hrs by flow cytometry analysis; format: cell-based; conditions: dose 6.25-25 µM
T2 sequence (P08183 whole entry, canonical isoform): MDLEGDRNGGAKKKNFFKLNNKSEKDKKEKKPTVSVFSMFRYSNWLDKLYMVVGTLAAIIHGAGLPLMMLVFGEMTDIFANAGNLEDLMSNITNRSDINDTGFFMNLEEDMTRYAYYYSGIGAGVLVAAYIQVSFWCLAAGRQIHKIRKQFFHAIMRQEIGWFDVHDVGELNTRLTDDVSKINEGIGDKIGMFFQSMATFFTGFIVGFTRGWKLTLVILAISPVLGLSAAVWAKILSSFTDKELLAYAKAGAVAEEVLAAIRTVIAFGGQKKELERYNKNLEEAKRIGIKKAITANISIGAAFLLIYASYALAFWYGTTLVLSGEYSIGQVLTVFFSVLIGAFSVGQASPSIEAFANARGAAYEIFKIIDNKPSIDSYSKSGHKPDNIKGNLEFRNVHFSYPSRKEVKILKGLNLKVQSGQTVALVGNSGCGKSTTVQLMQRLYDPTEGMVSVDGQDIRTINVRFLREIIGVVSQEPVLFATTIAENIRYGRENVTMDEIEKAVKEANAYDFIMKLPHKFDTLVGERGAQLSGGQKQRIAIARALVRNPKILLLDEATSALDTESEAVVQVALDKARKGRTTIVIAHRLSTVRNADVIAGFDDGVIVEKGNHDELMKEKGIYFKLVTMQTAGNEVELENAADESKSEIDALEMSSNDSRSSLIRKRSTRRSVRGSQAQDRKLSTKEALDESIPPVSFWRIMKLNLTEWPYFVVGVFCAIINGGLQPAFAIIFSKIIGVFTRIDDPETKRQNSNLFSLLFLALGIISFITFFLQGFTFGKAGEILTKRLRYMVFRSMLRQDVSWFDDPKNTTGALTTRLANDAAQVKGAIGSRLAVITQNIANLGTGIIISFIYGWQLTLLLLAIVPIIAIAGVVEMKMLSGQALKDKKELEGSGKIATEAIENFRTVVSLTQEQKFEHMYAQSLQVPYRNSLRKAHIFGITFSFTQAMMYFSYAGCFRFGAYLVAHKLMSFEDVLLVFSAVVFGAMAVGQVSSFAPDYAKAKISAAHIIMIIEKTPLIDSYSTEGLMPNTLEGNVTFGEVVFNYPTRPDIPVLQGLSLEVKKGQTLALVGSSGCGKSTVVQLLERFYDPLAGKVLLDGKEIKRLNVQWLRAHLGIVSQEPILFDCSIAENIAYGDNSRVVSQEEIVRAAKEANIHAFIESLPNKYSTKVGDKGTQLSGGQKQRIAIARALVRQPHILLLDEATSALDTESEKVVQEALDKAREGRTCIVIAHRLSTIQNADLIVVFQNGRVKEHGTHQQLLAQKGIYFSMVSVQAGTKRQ

[10] = target: T3, von Hippel-Lindau disease tumor suppressor/Phosphatidylinositol 4,5-bisphosphate 3-kinase catalytic subunit alpha isoform (Homo sapiens, UniProt P42336+P40337); test: PROTAC activity at PI3K-p110alpha/VHL in human MCF7/ADM cells assessed as reduction in PI3K-p110alpha level incubated for 24 hrs by Western blot analysis; format: cell-based; conditions: dose 0.04-50 µM
Target sequence in this assay (P40337 whole entry, looked up, canonical isoform): as the sequence (P40337 whole entry, looked up, canonical isoform) above
Target sequence in this assay (P42336 whole entry, looked up, canonical isoform): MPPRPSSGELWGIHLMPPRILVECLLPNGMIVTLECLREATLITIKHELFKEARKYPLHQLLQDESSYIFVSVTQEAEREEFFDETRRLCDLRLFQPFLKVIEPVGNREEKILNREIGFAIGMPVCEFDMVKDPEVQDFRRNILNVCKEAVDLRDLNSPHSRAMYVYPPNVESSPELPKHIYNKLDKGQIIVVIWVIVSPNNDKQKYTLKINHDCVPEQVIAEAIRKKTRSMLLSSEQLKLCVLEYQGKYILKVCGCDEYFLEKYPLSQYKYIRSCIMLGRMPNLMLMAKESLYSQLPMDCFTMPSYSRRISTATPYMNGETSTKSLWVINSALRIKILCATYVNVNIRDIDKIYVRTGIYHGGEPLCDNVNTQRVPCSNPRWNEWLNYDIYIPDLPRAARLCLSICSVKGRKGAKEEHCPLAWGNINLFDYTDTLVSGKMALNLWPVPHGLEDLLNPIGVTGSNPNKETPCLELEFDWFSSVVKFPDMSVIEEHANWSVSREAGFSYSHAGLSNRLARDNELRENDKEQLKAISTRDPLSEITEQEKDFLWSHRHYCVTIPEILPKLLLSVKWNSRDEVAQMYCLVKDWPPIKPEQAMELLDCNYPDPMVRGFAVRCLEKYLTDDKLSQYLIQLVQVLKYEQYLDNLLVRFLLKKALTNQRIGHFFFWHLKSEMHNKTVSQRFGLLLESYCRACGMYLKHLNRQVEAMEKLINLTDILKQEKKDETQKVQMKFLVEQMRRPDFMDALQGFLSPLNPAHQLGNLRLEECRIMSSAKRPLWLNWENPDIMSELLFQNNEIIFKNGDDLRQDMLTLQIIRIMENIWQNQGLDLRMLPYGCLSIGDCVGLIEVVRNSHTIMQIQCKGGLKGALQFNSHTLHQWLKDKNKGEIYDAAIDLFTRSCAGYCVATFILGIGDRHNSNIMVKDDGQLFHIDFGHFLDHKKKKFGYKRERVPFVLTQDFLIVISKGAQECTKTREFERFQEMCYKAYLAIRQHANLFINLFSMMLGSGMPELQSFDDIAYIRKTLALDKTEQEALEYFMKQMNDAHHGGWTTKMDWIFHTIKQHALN

Mitochondrial membrane = test: Induction of mitochondrial membrane potential loss in human MCF7/ADM cells assessed as increase in green fluorescence at 25 uM incubated for 48 hrs by JC-1 staining based flow cytometry
[11] = target: T2, ATP-dependent translocase ABCB1; test: Inhibition of P-gp in human MCF7/ADM cells assessed as increase in intracellular Rh123 accumulation at 6.25 to 25 uM incubated for 24 hrs by flow cytometry analysis; format: cell-based; conditions: dose 6.25-25 µM
MCF7/ADM [12] = test: Antitumor activity against human MCF7/ADM cells xenografted in BALB/c mouse assessed as increase in cleaved caspase-9 expression in tumor at 50 mg/kg, ip by Western blot analysis; format: functional, organism-based
A549/CDDP [13] = test: Induction of apoptosis in human A549/DDP cells assessed as increase in cleaved caspase-8 expression at 12.5 uM incubated for 24 hrs by Western blot analysis; format: functional, cell-based
[14] = target: T3, von Hippel-Lindau disease tumor suppressor/Phosphatidylinositol 4,5-bisphosphate 3-kinase catalytic subunit alpha isoform; test: PROTAC activity at PI3K-p110alpha/VHL in human A549/DDP cells assessed as reduction in PI3K-p110alpha level incubated for 24 hrs by Western blot analysis; format: cell-based; conditions: dose 0.04-50 µM
Target sequence in this assay (P40337 whole entry, looked up, canonical isoform): as the sequence (P40337 whole entry, looked up, canonical isoform) above
Target sequence in this assay (P42336 whole entry, looked up, canonical isoform): as the sequence (P42336 whole entry, looked up, canonical isoform) above

MCF7/ADM [15] = test: Induction of oxidative stress in human MCF7/ADM cells at 25 uM measured for 24 hrs; format: functional, cell-based
A549/CDDP [16] = test: Upregulation of p-IRE1 expression in human A549/DDP cells at 0.25 to 25 uM incubated for 24 hrs by Western blot analysis; format: functional, cell-based; conditions: dose 0.25-25 µM
[17] = Toxicity in BALB/c mouse xenografted with human MCF7/ADM cells assessed as liver damage at 50 mg/kg, ip by H and E staining based analysis; format: organism-based; conditions: in vivo
A549/CDDP [18] = test: Induction of apoptosis in human A549/DDP cells assessed as decrease in bcl-2 expression at 12.5 uM incubated for 24 hrs by Western blot analysis; format: functional, cell-based
[19] = Toxicity in BALB/c mouse xenografted with human MCF7/ADM cells assessed as lung damage at 50 mg/kg, ip by H and E staining based analysis; format: organism-based; conditions: in vivo
A549/CDDP [20] = test: Induction of apoptosis in human A549/DDP cells assessed as increase in caspase-8 expression at 12.5 uM incubated for 24 hrs by Western blot analysis; format: functional, cell-based
[21] = Toxicity in BALB/c mouse xenografted with human MCF7/ADM cells assessed as spleen damage at 50 mg/kg, ip by H and E staining based analysis; format: organism-based; conditions: in vivo
MCF7/ADM [22] = test: Upregulation of ATF6 expression in human MCF7/ADM cells at 0.25 to 25 uM incubated for 24 hrs by Western blot analysis; format: functional, cell-based; conditions: dose 0.25-25 µM
MCF7/ADM [23] = test: Antitumor activity against human MCF7/ADM cells xenografted in BALB/c mouse assessed as increase in ATF6 expression in tumor at 50 mg/kg, ip by Western blot analysis; format: functional, organism-based
[24] = Toxicity in BALB/c mouse xenografted with human MCF7/ADM cells assessed as change in WBC count at 50 mg/kg, ip; format: organism-based; conditions: in vivo
MCF7/ADM [25] = test: Upregulation of PERK expression in human MCF7/ADM cells at 0.25 to 25 uM incubated for 24 hrs by Western blot analysis; format: functional, cell-based; conditions: dose 0.25-25 µM
[26] = Induction of apoptosis in human MCF7/ADM cells at 25 uM incubated for 24 hrs by Annexin V-FITC/PI staining based flow cytometry analysis (reference value: 5.20%); format: functional
MCF7/ADM [27] = test: Antitumor activity against human MCF7/ADM cells xenografted in BALB/c mouse assessed as increase in PERK expression in tumor at 50 mg/kg, ip by Western blot analysis; format: functional, organism-based
[28] = target: T1, von Hippel-Lindau disease tumor suppressor/Phosphatidylinositol 4,5-bisphosphate 3-kinase catalytic subunit beta isoform; test: PROTAC activity at PI3K-p110beta/VHL in human A549/DDP cells assessed as induction of PI3K-p110beta degradation at 25 uM measured for 24 hrs in presence of TGX221 by Western blot analysis; format: cell-based
Target sequence in this assay (P40337 whole entry, looked up, canonical isoform): as the sequence (P40337 whole entry, looked up, canonical isoform) above
Target sequence in this assay (P42338 whole entry, looked up, canonical isoform): as the sequence (P42338 whole entry, looked up, canonical isoform) above

[29] = target: T1, von Hippel-Lindau disease tumor suppressor/Phosphatidylinositol 4,5-bisphosphate 3-kinase catalytic subunit beta isoform; test: PROTAC activity at PI3K-p110beta/VHL in human MCF7/ADM cells assessed as induction of PI3K-p110beta degradation incubated for 24 hrs by Western blot analysis; format: cell-based
A549/CDDP [30] = test: Induction of apoptosis in human A549/DDP cells at 25 uM incubated for 24 hrs by Annexin V-FITC/PI staining based flow cytometry analysis (reference value: 4.27%); format: functional
[31] = target: T3, von Hippel-Lindau disease tumor suppressor/Phosphatidylinositol 4,5-bisphosphate 3-kinase catalytic subunit alpha isoform; test: PROTAC activity at PI3K-p110alpha/VHL in human MCF7/ADM cells assessed as induction of PI3K-p110alpha degradation incubated for 24 hrs by Western blot analysis; format: cell-based
[32] = target: T1, von Hippel-Lindau disease tumor suppressor/Phosphatidylinositol 4,5-bisphosphate 3-kinase catalytic subunit beta isoform; test: PROTAC activity at PI3K-p110beta/VHL in human A549/DDP cells assessed as reduction in PI3K-p110beta level at 25 uM incubated for 24 hrs by Western blot analysis relative to control; format: cell-based; parameters: scale not given: the % may be the effect or the level left
Target sequence in this assay (P40337 whole entry, looked up, canonical isoform): as the sequence (P40337 whole entry, looked up, canonical isoform) above
Target sequence in this assay (P42338 whole entry, looked up, canonical isoform): as the sequence (P42338 whole entry, looked up, canonical isoform) above

A549/CDDP [33] = test: Induction of apoptosis in human A549/DDP cells at 6.25 uM incubated for 24 hrs by Annexin V-FITC/PI staining based flow cytometry analysis (reference value: 4.27%); format: functional

Activity [7]	inhibition (INH) [9]	Activity (Mitochondrial membrane)	inhibition (INH) [11]	SMILES	Activity [2]	Activity (MCF7/ADM [4])	Activity (MCF7/ADM [5])	Activity (A549/CDDP [6])	Activity [8]	Activity (MCF7/ADM [12])	Activity (A549/CDDP [13])	Activity (MCF7/ADM [15])	Activity (A549/CDDP [16])	Activity [17]	Activity (A549/CDDP [18])	Activity [19]	Activity (A549/CDDP [20])	Activity [21]	Activity (MCF7/ADM [22])	Activity (MCF7/ADM [23])	also measured
Active	Active	Active	Active	Cc1cc(C(C)Nc2ccccc2C(=O)NCCOCCOCCC(=O)N[C@H](C(=O)N2C[C@H](O)C[C@H]2C(=O)NCc2ccc(-c3scnc3C)cc2)C(C)(C)C)c2nc(N3CCOCC3)cc(=O)n2c1 (stereo partly drawn)	Non-toxic	Active	Active	Active	Non-toxic	Active	Active	Active	Active	Non-toxic	Active	Non-toxic	Active	Non-toxic	Active	Active	Activity [1]: 75%; Activity [3]: Dose-dependent-effect; Activity [10]: Dose-dependent-effect; Activity [14]: Dose-dependent-effect; Activity [24]: Non-toxic; Activity (MCF7/ADM [25]): Active; Activity [26]: 26.66%; Activity (MCF7/ADM [27]): Active; Activity [28]: inactive
Active	Active	Active	Active	Cc1cc(C(C)Nc2ccccc2C(=O)NCCCCCCC(=O)N[C@H](C(=O)N2C[C@H](O)C[C@H]2C(=O)NCc2ccc(-c3scnc3C)cc2)C(C)(C)C)c2nc(N3CCOCC3)cc(=O)n2c1 (stereo partly drawn)	Non-toxic	Active	Active	Active	Non-toxic	Active	Active	Active	Active	Non-toxic	Active	Non-toxic	Active	Non-toxic	Active	Active	DC50 [29]: 1260 nM; Activity (A549/CDDP [30]): 23.83%; DC50 [31]: > 50000 nM; Activity [32]: 88%; Activity (A549/CDDP [33]): 8.73%; Activity [24]: Non-toxic; Activity (MCF7/ADM [25]): Active; Activity (MCF7/ADM [27]): Active; Activity [28]: inactive
